From patent US20150266857A1, “NOVEL 3-INDOL SUBSTITUTED DERIVATIVES, PHARMACEUTICAL COMPOSITIONS AND METHODS FOR USE” (iTeos Therapeutics, priority 2014, published 2015) come the findings set out here.

SMILES strings stand for the structures.

This assay deals with T1, human glioblastoma A172 cells, naturally expressing hTDO2 (Homo sapiens, UniProt P48775).
T1 construct: human glioblastoma A172 cells, naturally expressing hTDO2; endogenous in cells; host or cells: human glioblastoma A172 cells (ATCC CRL-1620)
T1 sequence (P48775 whole entry): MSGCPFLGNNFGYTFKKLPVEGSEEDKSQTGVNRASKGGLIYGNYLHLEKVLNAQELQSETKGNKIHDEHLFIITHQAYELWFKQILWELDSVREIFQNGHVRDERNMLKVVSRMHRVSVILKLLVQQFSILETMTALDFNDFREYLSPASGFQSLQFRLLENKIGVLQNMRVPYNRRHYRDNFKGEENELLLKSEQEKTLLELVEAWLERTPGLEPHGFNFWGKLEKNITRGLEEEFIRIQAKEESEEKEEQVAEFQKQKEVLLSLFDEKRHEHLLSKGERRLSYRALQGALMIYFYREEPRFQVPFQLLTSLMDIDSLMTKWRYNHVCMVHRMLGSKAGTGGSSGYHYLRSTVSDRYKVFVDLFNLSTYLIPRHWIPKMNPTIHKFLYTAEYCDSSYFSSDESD
The experiment in a line: Cellular assay for TDO2 activity, A172 cells. As to conditions: overnight incubation, kynurenine in supernatant. The class given is cell-based. On the procedure:
The compounds of formula I inhibit the activity of human TDO2 in cells that constitutively express TDO2, such as A172 cells. A172 is a cell line derived from human brain glioblastoma cells. The cells are available from the American Type Culture Collection (ATCC®) as CRL-1620™
The assay (adapted from Pilotte L et al., Proc Natl Acad Sci USA, 2012, 109(7), 2497-502) was performed in 96-well flat bottom plates seeded with human glioblastoma A172 cells, naturally expressing hTDO2 (prepared as described in Tilman et al., Mol Cancer, 2007, 17(6), 80), at a concentration of 1.25×10^4 cells/well in a final volume of 200 μL. To determine TDO, the cells were incubated overnight at 37° C. at 5% CO2 in IMDM (Invitrogen) supplemented with 2% FBS and 2% penicillin/streptomycin in the presence of the compounds of the present invention, at different concentrations.
The plates were then centrifuged 5 min at 1000 rpm, and 100 μL of the supernatant were collected in a conical plate, 30 uL of TCA 30% were added and a further centrifugated at 3000×g for 10 minutes. 100 μL of the supernatant were collected in a flat bottomed plate and 100 μL of 2% (w/v) 4-(dimethylamino)-benzaldehyde in acetic acid and incubated for 5 min at room temperature. Kynurenine concentrations were determined by measuring the absorbance at 480 nm. A standard curve was made with pure kynurenine. The TDO activity was measured as described above using ten serial concentrations of the compounds of the present invention. Data were fitted using the Prism™ software (GraphPad Software, Inc.) using standard parameters.

`NC(=O)CCc1nc2ccc(-c3c[nH]c4cc(F)ccc34)cc2o1` [Compound 83, 3-(6-(6-fluoro-1H-indol-3-yl)benzo[d]oxazol-2-yl)propanamide] had a half-maximal inhibitory concentration (IC50) of 154 nM.

For `Fc1ccc2c(-c3ccc4oc(CN5CCOCC5)nc4c3)c[nH]c2c1` [Compound 63, 5-(6-fluoro-1H-indol-3-yl)-2-(morpholinomethyl)benzo[d]oxazole], the IC50 was 597 nM.

For `Fc1ccc2c(-c3ccc4ccoc4c3)c[nH]c2c1` [Compound 146, 3-(benzofuran-6-yl)-6-fluoro-1H-indole], the midpoint of inhibition, the IC50, lay at 520 nM.

Turning to `Clc1ccc2c(-c3ccc4ocnc4c3)c[nH]c2c1` [Compound 111, 5-(6-chloro-1H-indol-3-yl)benzo[d]oxazole], 19000 nM corresponded to half-maximal inhibition (IC50).

For the molecule `CC(=O)N1CCC(c2nc3ccc(-c4c[nH]c5cc(F)ccc45)cc3o2)CC1` [Compound 56, 1-(4-(6-(6-fluoro-1H-indol-3-yl)benzo[d]oxazol-2-yl)piperidin-1-yl)ethanone], the midpoint of inhibition, the IC50, lay at 311 nM.

Consider `NC(=O)CCn1c(=O)oc2ccc(-c3c[nH]c4cc(F)ccc34)cc21` [Compound 71], for which half-maximal inhibition (IC50) required 3530 nM. This IC50 is about 11-fold higher than that of the molecule before.

With `COCCS(=O)(=O)NCc1nc2ccc(-c3c[nH]c4cc(F)ccc34)cc2o1` [Compound 99, N-((6-(6-fluoro-1H-indol-3-yl)benzo[d]oxazol-2-yl)methyl)-2-methoxyethanesulfonamide], it took 351 nM to reach half-maximal inhibition (IC50).

Consider `Nc1nc2ccc(-c3c[nH]c4cc(F)ccc34)cc2[nH]1` [Compound 41, 6-(6-fluoro-1H-indol-3-yl)-1H-benzo[d]imidazol-2-amine], for which the midpoint of inhibition, the IC50, lay at 1090 nM.

Molecule `CS(=O)(=O)N1CCN(CCc2nc3ccc(-c4c[nH]c5cc(F)ccc45)cc3o2)CC1` [Compound 120, 6-(6-fluoro-1H-indol-3-yl)-2-(2-(4-(methylsulfonyl)piperazin-1-yl)ethyl)benzo[d]oxazole] showed a half-maximal inhibitory concentration (IC50) of 443 nM.

Regarding `NC(=O)Cn1cnc2ccc(-c3c[nH]c4cc(F)ccc34)cc21` [Compound 84, 2-(6-(6-fluoro-1H-indol-3-yl)-1H-benzo[d]imidazol-1-yl)acetamide], 1020 nM corresponded to half-maximal inhibition (IC50).

For `CS(=O)(=O)N1CCC(Cc2nc3ccc(-c4c[nH]c5cc(F)ccc45)cc3o2)CC1` [Compound 119, 6-(6-fluoro-1H-indol-3-yl)-2-((1-(methylsulfonyl)piperidin-4-yl)methyl)benzo[d]oxazole], the midpoint of inhibition, the IC50, lay at 1020 nM.

For `O=C(CCn1ncc2cc(-c3c[nH]c4cc(F)ccc34)ccc21)N1CCOCC1` [Compound 86, 3-(5-(6-fluoro-1H-indol-3-yl)-1H-indazol-1-yl)-1-morpholinopropan-1-one], half-maximal inhibition (IC50) was put at 646 nM.

Regarding `NC(=O)Cn1cnc2cc(-c3c[nH]c4cc(F)ccc34)ccc21` [Compound 85, 2-(5-(6-fluoro-1H-indol-3-yl)-1H-benzo[d]imidazol-1-yl)acetamide], half-maximal inhibition (IC50) was put at 1330 nM.

`CS(=O)(=O)Nc1nc2ccc(-c3c[nH]c4cc(F)ccc34)cc2o1` [Compound 58, N-(6-(6-fluoro-1H-indol-3-yl)benzo[d]oxazol-2-yl)methanesulfonamide] yielded an IC50 of 3770 nM.

`Clc1ccc2[nH]cc(-c3ccc4ocnc4c3)c2c1` [Compound 121, 5-(5-chloro-1H-indol-3-yl)benzo[d]oxazole] returned an IC50 of 1770 nM.

In turn, `CS(=O)(=O)CCc1nc2cc(-c3c[nH]c4cc(F)ccc34)ccc2o1` [Compound 80, 5-(6-fluoro-1H-indol-3-yl)-2-(2-(methylsulfonyl)ethyl)benzo[d]oxazole] showed a half-maximal inhibitory concentration (IC50) of 842 nM. This IC50 is about 2.1-fold lower than that of the molecule before.

`CN1CCC(Cc2nc3ccc(-c4c[nH]c5cc(F)ccc45)cc3o2)CC1` [Compound 125, 6-(6-fluoro-1H-indol-3-yl)-2-((1-methylpiperidin-4-yl)methyl)benzo[d]oxazole] gave an IC50 of 148 nM.

`O=C(CCn1ncc2cc(-c3c[nH]c4cc(F)ccc34)ccc21)N1CCNCC1` [Compound 91, 3-(5-(6-fluoro-1H-indol-3-yl)-1H-indazol-1-yl)-1-(piperazin-1-yl)propan-1-one] had an IC50 of 213 nM.

In turn, `NC(=O)CCn1c(=O)oc2cc(-c3c[nH]c4cc(F)ccc34)ccc21` [Compound 67, 3-(6-(6-fluoro-1H-indol-3-yl)-2-oxobenzo[d]oxazol-3(2H)-yl)propanamide] returned an IC50 of 2520 nM. This IC50 lies about 12-fold higher than the previous one.

For the molecule `OC1CCN(CCc2nc3ccc(-c4c[nH]c5cc(F)ccc45)cc3o2)CC1` [Compound 140, 1-(2-(6-(6-fluoro-1H-indol-3-yl)benzo[d]oxazol-2-yl)ethyl)piperidin-4-ol], the half-maximal inhibitory concentration (IC50) stood at 447 nM.

In turn, `C[C@@H]1CN(CCc2nc3ccc(-c4c[nH]c5cc(F)ccc45)cc3o2)C[C@@H](C)N1` [Compound 142, (+)-2-(2-((3R,5R)-3,5-dimethylpiperazin-1-yl)ethyl)-6-(6-fluoro-1H-indol-3-yl)benzo[d]oxazole] came in with a 50% inhibitory concentration (IC50) of 480 nM.

In turn, `Fc1ccc2c(-c3ccc4oc(CN5CCNCC5)nc4c3)c[nH]c2c1` [Compound 61, 5-(6-fluoro-1H-indol-3-yl)-2-(piperazin-1-ylmethyl)benzo[d]oxazole] came in with a 50% inhibitory concentration (IC50) of 459 nM.

With `NC(=O)CCn1cnc2ccc(-c3c[nH]c4cc(F)ccc34)cc21` [Compound 93, 3-(6-(6-fluoro-1H-indol-3-yl)-1H-benzo[d]imidazol-1-yl)propanamide], inhibition was half-maximal at 1150 nM (IC50).

Molecule `Fc1ccc2c(-c3ccc4ccsc4c3)c[nH]c2c1` [Compound 79, 3-(benzo[b]thiophen-6-yl)-6-fluoro-1H-indole] yielded a half-maximal inhibitory concentration (IC50) of 802 nM.

For `O=C1NC(=O)C(Cc2nc3ccc(-c4c[nH]c5cc(F)ccc45)cc3o2)N1` (stereo not shown) [Compound 129, 5-((6-(6-fluoro-1H-indol-3-yl)benzo[d]oxazol-2-yl)methyl)imidazolidine-2,4-dione], the 50% inhibitory concentration (IC50) was determined as 225 nM.

Molecule `C[C@@H]1CN(CCc2nc3ccc(-c4c[nH]c5cc(F)ccc45)cc3o2)C[C@H](C)N1` [Compound 139, 2-(2-(cis-3,5-dimethylpiperazin-1-yl)ethyl)-6-(6-fluoro-1H-indol-3-yl)benzo[d]oxazole] came in with an IC50 of 383 nM.

`Fc1ccc2c(-c3ccc4c(c3)CNC4)c[nH]c2c1` [Compound 133, 6-fluoro-3-(isoindolin-5-yl)-1H-indole] showed a concentration for half-maximal inhibition (IC50) of 292 nM.

`C[C@@H]1CN[C@@H](C)CN1CCc1nc2ccc(-c3c[nH]c4cc(F)ccc34)cc2o1` (relative stereo) [Compound 141, 2-(2-(trans-2,5-dimethylpiperazin-1-yl)ethyl)-6-(6-fluoro-1H-indol-3-yl)benzo[d]oxazole] displayed an IC50 of 340 nM.

`CS(=O)(=O)NCc1nc2ccc(-c3c[nH]c4ccccc34)cc2o1` [Compound 114, N-((6-(1H-indol-3-yl)benzo[d]oxazol-2-yl)methyl)methanesulfonamide] displayed an IC50 of 478 nM. This IC50 and that of the molecule before are within 1.5-fold of each other.

`Fc1ccc2c(-c3ccc4nc(CCN5CC6(CNC6)C5)oc4c3)c[nH]c2c1` [Compound 143, 2-(2-(2,6-diazaspiro[3.3]heptan-2-yl)ethyl)-6-(6-fluoro-1H-indol-3-yl)benzo[d]oxazole] registered a concentration for half-maximal inhibition (IC50) of 610 nM.

The molecule `O=C1NC(=O)c2cc(-c3c[nH]c4cc(F)ccc34)ccc21` [Compound 132, 5-(6-fluoro-1H-indol-3-yl)isoindoline-1,3-dione] returned a half-maximal inhibitory concentration (IC50) of 197 nM.

Molecule `O=S1(=O)NCc2cc(-c3c[nH]c4cc(F)ccc34)ccc21` [Compound 135, 5-(6-fluoro-1H-indol-3-yl)-2,3-dihydrobenzo[d]isothiazole 1,1-dioxide] came in with a half-inhibitory concentration (IC50) of 74 nM.

For `NC(=O)Cn1c(=O)oc2ccc(-c3c[nH]c4cc(F)ccc34)cc21` [Compound 69, 2-(5-(6-fluoro-1H-indol-3-yl)-2-oxobenzo[d]oxazol-3(2H)-yl)acetamide], the half-inhibitory concentration (IC50) worked out at 3280 nM.

The molecule `COc1nc2ccc(-c3c[nH]c4cc(F)ccc34)cc2o1` [Compound 116, 6-(6-fluoro-1H-indol-3-yl)-2-methoxybenzo[d]oxazole] gave a concentration for half-maximal inhibition (IC50) of 372 nM.

`O=C(O)C1CN(CCc2nc3ccc(-c4c[nH]c5cc(F)ccc45)cc3o2)CCN1` (stereo not shown) [Compound 145, 4-(2-(6-(6-fluoro-1H-indol-3-yl)benzo[d]oxazol-2-yl)ethyl)piperazine-2-carboxylic acid] displayed a 50% inhibitory concentration (IC50) of 26000 nM.

Consider `Fc1ccc2c(-c3ccc4nc(C5CCNCC5)oc4c3)c[nH]c2c1` [Compound 55, 6-(6-fluoro-1H-indol-3-yl)-2-(piperidin-4-yl)benzo[d]oxazole], for which half-maximal inhibition (IC50) required 171 nM.

In the case of `O=S1(=O)NCc2ccc(-c3c[nH]c4cc(F)ccc34)cc21` [Compound 134], the IC50 was 771 nM.

`Fc1ccc2c(-c3ccc4occc4c3)c[nH]c2c1` [Compound 82, 3-(benzofuran-5-yl)-6-fluoro-1H-indole] came in with an IC50 of 602 nM.

In turn, `Fc1ccc2c(-c3ccc4nc(CC5CCNCC5)oc4c3)c[nH]c2c1` [Compound 113, 6-(6-fluoro-1H-indol-3-yl)-2-(piperidin-4-ylmethyl)benzo[d]oxazole] had an IC50 of 284 nM.

In turn, `c1ccc2c(-c3ccc4ocnc4c3)c[nH]c2c1` [Compound 118, 5-(1H-indol-3-yl)benzo[d]oxazole] displayed an IC50 of 1530 nM.

Broadly, the IC50 is the concentration at which inhibition is half-maximal.
